Assay results published in paper PMC10120462, “Styrylquinazoline derivatives as ABL inhibitors selective for different DFG orientations” (Journal of Enzyme Inhibition and Medicinal Chemistry, 2023).
Structures can show the parent of a compound that is named as a salt.

Key:
Src = target: T1, Src (Homo sapiens, UniProt P12931); assay: Tyrosine kinase assay (Kinase Selectivity System TK-2, ADP-Glo); assay type: biochemical; settings: 1 h incubation, mean ± SD of four experiments
T1 construct: purchased Promega
T1 sequence (P12931 whole entry): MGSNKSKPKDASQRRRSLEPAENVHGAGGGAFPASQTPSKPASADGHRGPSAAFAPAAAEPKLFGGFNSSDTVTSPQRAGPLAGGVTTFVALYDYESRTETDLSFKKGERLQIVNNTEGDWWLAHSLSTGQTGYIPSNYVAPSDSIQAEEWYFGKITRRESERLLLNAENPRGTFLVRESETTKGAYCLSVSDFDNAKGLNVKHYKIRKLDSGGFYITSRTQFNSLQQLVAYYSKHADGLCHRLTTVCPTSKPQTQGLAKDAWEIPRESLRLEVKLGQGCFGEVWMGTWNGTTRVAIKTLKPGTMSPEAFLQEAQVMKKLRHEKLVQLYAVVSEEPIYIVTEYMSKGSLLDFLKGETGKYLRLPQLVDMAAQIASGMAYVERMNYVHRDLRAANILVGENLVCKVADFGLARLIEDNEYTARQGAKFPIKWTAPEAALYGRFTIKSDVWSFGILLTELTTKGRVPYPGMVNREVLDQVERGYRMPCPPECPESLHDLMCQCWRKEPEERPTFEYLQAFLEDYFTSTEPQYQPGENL

Fyn A = target: T2, Fyn A (Homo sapiens, UniProt P06241); assay: as above; assay type: biochemical; settings: 1 h incubation, mean ± SD of four experiments
T2 construct: purchased Promega
T2 sequence (P06241 whole entry): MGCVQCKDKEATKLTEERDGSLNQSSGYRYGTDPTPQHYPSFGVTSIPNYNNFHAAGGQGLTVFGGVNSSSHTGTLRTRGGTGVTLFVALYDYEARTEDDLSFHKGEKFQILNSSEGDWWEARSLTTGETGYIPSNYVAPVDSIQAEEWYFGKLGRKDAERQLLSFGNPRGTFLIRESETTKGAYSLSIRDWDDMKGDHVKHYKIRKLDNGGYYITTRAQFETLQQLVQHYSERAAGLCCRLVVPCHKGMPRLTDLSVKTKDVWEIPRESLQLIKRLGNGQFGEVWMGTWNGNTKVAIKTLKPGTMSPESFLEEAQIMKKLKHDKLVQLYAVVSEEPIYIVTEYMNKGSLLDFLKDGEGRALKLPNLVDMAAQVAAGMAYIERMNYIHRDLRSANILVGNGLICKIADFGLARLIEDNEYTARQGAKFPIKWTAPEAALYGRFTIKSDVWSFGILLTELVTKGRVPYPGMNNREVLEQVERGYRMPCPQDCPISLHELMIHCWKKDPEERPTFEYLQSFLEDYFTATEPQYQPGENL
Source text: All newly synthesised derivatives were screened for their inhibitory potential towards eight non-receptor tyrosine kinases, such as ABL, BTK, BRK and Src family kinases, such as CSK, Lyn, Lck, Fyn and Src. […] To facilitate the analysis of the structure and enzymatic activity, all tested compounds were divided into four subgroups based on the main structural scaffolds (the general structure of each group is shown in the second column of Table 1). Series A, B, and C were subdivided according to the S^4-aryl substituent, while D represents the different styryl groups at the C^2-quinazoline position.
Herein, we used a kinase assay that contained fully expressed kinases with their regulatory domains, which are responsible for autoinhibition. The proteins are present in their unphosphorylated form and the procedure required supplementation with ATP. Importantly, autophosphorylation of ABL is dependent on […] concentration of the protein. Thus, our experimental conditions reflect the cellular process to be simulated. The luminescence signal detected after one hour of incubation with a peptide substrate was a measure of inhibition. Under these conditions, the question of whether the inhibitors tested bind to the ortho or allosteric site of the protein could be answered. […] To test this hypothesis, further molecular docking experiments were performed to more precisely determine the binding of the tested compounds to the ABL kinase.
To determine the inhibition of non-receptor tyrosine kinases, assays were performed using the kinase selectivity system TK-2 and the ADP-Glo Kinase Assay (both from Promega). The protocol was previously developed by our group and described in reports[12]^,[36]. Experiments were performed at least four times. Data are expressed as percentage of tyrosine kinase inhibitory activity after treatment with the derivatives tested.

CSK = target: T3, CSK (Homo sapiens, UniProt P41240); assay: as above; assay type: biochemical; settings: 1 h incubation, mean ± SD of four experiments
T3 construct: purchased Promega
T3 sequence (P41240 whole entry): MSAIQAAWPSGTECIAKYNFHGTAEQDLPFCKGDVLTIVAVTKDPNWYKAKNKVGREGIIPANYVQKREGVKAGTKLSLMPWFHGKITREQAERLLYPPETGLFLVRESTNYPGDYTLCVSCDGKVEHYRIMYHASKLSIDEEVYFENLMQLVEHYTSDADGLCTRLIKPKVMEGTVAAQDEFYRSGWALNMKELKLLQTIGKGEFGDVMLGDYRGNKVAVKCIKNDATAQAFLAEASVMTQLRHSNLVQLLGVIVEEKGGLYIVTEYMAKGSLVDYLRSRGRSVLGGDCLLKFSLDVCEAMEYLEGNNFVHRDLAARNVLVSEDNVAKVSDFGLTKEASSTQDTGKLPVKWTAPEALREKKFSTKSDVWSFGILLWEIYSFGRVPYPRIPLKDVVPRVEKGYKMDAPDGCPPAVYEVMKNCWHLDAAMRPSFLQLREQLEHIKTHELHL

Lyn B = target: T4, Lyn B (Homo sapiens, UniProt P07948); assay: as above; assay type: biochemical; settings: 1 h incubation, mean ± SD of four experiments
T4 construct: purchased Promega
T4 sequence (P07948 1-491 isoform P07948-2): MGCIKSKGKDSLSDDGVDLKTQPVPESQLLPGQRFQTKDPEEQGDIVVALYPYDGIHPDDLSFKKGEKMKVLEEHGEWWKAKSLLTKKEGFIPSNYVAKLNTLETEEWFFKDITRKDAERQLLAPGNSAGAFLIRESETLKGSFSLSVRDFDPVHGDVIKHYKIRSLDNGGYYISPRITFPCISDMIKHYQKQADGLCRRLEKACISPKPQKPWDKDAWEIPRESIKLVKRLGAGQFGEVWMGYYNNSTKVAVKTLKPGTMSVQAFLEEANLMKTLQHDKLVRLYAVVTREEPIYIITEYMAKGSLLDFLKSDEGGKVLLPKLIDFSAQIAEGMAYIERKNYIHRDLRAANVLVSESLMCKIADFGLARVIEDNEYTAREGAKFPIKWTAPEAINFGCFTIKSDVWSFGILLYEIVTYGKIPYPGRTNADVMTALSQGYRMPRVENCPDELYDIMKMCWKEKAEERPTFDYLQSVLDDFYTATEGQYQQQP

U-251 = assay: Cytotoxicity studies (MTS), antiproliferative activity; assay type: cell-based, human; settings: Homo sapiens, U-251; 72 h, MTS
Source text: (§1) In contrast, the other cell lines studied represent common cancers found in the human population. Nevertheless, these cell lines are characterised by a different landscape of kinase expression, as reported in[36]. In chronic leukaemia cells, an aberration of the Philadelphia chromosome is common in which a fragment of chromosome 9 is displaced to chromosome 22, leading to the formation of the oncogenic protein BCR-ABL. The altered structure of the protein leads to abnormal activity that promotes excessive growth and differentiation of cells even in the absence of growth factors, as well as inhibition of apoptosis and formation of metastases. Moreover, the status of the TP53 gene in leukaemia is not insignificant. Mutations of the TP53 gene occur in more than 50% of all cancers, leading to increased metastasis and an overall poor prognosis[38]^,[39]. The p53 protein encoded by this gene plays a pivotal role in controlling cell division or cell fate when damage is detected. […] Therefore, interaction between the signalling network of the BCR-ABL pathway and p53 often results in an impairment of p53 function and survival[43]^,[44]. […] Selectivity studies were performed on normal human fibroblast – NHDF cell line.
(§2) M. Rusin from the Maria Sklodowska-Curie Memorial Cancer Centre and Institute of Oncology in Gliwice, Poland. […] G. Kramer-Marek from the Institute of Cancer Research in London, United Kingdom. The human suspension chronic myeloids leukaemia cell line K562 and the pancreatic ductal adenocarcinoma cell line PANC-1 were purchased from Merck. The normal human dermal fibroblasts cell line NHDF were obtained from PromoCell. All adherent cancer cell lines were cultured in Dulbecco’s Modified Eagle’s medium (DMEM) supplemented with 10% heat-inactivated foetal bovine serum – FBS (all from Merck). […] Each complete medium contained a mixture of two antibiotics - penicillin and streptomycin (1% v/v; Gibco). Cell lines were cultured at 37 °C with 5% CO2 humidified atmosphere.
(§3) The assay was carried out after 72 h of incubation with different concentrations of the tested compounds. Then DMEM without phenol red was added to each well with CellTiter 96®AQueous One Solution-MTS (Promega) solution and incubated for 1 h or 3 h (PANC-1) at 37 °C. The optical densities of the samples were measured at 490 nm using a multi-plate reader (Synergy 4, BioTek). […] Each compound was tested in triplicate in a single experiment and each experiment was performed three or four times.

HCT 116 p53+/+ = assay: as above; assay type: cell-based, human; settings: Homo sapiens, HCT-116; 72 h, MTS
Source text: as §1, §2, §3

K562 = assay: as above; assay type: cell-based, human; settings: Homo sapiens, K562; 72 h, MTS
Source text: as §1, §2, §3

PANC-1 = assay: as above; assay type: cell-based, human; settings: Homo sapiens, PANC-1; 72 h, MTS
Source text: as §1, §2, §3

MCF-7 = assay: as above; assay type: cell-based, human; settings: Homo sapiens, MCF7; 72 h, MTS
Source text: as §1, §2, §3

Lck = target: T5, Lck (Homo sapiens, UniProt P06239); assay: Tyrosine kinase assay (Kinase Selectivity System TK-2, ADP-Glo); assay type: biochemical; settings: 1 h incubation, mean ± SD of four experiments
T5 construct: purchased Promega
T5 sequence (P06239 whole entry): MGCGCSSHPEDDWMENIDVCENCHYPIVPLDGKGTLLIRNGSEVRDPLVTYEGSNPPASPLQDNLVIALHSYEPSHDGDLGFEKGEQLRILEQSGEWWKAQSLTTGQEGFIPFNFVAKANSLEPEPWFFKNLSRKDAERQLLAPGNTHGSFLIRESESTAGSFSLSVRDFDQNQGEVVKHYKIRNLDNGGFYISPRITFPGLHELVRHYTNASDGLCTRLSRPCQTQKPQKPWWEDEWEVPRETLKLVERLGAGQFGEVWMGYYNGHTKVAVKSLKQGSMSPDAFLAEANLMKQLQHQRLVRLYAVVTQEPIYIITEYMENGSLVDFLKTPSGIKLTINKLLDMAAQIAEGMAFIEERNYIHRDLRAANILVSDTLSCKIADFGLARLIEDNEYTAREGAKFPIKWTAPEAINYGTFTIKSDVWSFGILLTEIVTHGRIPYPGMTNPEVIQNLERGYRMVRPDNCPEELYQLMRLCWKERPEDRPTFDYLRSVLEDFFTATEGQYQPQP

ABL = target: T6, ABL (Homo sapiens, UniProt P00519); assay: as above; assay type: biochemical; settings: 1 h incubation, mean ± SD of four experiments
T6 construct: purchased Promega
T6 sequence (P00519 whole entry): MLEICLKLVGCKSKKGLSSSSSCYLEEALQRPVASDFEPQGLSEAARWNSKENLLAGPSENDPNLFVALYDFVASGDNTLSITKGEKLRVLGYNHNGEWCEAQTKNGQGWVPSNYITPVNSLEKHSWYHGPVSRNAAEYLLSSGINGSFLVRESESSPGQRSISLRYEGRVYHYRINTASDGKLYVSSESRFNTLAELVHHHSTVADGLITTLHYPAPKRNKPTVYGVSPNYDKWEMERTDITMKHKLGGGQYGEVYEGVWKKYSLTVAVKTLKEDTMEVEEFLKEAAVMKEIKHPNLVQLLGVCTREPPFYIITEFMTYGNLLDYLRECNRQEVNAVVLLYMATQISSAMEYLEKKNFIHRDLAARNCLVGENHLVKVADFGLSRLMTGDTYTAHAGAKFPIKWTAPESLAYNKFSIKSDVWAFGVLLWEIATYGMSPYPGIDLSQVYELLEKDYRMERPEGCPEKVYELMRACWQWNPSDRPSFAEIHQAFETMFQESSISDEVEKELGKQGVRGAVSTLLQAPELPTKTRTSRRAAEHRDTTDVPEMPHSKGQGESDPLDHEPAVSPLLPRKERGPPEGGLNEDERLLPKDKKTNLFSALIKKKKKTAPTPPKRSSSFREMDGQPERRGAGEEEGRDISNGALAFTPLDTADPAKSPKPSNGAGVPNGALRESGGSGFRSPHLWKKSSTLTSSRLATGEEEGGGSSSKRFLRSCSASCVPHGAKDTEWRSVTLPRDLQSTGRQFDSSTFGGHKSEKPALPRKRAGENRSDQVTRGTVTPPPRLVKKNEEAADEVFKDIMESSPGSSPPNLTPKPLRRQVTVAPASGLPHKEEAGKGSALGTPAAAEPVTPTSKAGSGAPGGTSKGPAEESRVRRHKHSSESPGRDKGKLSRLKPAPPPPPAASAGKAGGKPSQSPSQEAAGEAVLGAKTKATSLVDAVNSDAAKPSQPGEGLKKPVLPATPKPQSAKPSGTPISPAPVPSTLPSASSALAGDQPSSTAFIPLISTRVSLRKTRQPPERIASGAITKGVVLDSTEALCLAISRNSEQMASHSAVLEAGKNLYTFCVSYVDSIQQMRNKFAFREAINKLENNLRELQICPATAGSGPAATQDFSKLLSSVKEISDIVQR

NHDF = assay: Cytotoxicity studies (MTS), normal fibroblasts; assay type: cell-based; settings: 72 h, normal human fibroblasts, read-out: Antiproliferative activity IC50 NHDF
Source text: as §1, §2, §3

BTK = target: T7, BTK (Homo sapiens, UniProt Q06187); assay: Tyrosine kinase assay (Kinase Selectivity System TK-2, ADP-Glo); assay type: biochemical; settings: 1 h incubation, mean ± SD of four experiments
T7 construct: purchased Promega
T7 sequence (Q06187 whole entry): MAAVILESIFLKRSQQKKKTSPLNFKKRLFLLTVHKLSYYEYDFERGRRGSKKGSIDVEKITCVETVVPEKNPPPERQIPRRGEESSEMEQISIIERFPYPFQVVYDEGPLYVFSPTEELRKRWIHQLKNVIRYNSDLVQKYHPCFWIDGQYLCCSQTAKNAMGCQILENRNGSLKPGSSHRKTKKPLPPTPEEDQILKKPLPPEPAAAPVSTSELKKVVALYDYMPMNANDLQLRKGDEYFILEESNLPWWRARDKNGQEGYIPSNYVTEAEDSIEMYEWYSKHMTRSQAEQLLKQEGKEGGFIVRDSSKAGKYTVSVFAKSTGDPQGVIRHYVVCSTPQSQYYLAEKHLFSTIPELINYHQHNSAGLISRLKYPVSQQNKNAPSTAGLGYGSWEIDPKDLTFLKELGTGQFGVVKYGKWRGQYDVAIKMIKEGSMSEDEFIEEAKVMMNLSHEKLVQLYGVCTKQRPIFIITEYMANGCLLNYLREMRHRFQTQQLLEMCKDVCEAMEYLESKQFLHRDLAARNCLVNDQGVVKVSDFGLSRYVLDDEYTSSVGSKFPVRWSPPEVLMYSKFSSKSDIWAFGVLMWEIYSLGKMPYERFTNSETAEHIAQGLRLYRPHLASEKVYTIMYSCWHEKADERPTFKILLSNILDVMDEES

HCT 116 p53−/− = assay: Cytotoxicity studies (MTS), antiproliferative activity; assay type: cell-based, human; settings: Homo sapiens, HCT-116; 72 h, MTS
Source text: as §1, §2, §3

A549 = assay: as above; assay type: cell-based, human; settings: Homo sapiens, A549; 72 h, MTS
Source text: as §1, §2, §3

BRK = target: T8, BRK (Homo sapiens, UniProt Q13882); assay: Tyrosine kinase assay (Kinase Selectivity System TK-2, ADP-Glo); assay type: biochemical; settings: 1 h incubation, mean ± SD of four experiments
T8 construct: purchased Promega
T8 sequence (Q13882 whole entry): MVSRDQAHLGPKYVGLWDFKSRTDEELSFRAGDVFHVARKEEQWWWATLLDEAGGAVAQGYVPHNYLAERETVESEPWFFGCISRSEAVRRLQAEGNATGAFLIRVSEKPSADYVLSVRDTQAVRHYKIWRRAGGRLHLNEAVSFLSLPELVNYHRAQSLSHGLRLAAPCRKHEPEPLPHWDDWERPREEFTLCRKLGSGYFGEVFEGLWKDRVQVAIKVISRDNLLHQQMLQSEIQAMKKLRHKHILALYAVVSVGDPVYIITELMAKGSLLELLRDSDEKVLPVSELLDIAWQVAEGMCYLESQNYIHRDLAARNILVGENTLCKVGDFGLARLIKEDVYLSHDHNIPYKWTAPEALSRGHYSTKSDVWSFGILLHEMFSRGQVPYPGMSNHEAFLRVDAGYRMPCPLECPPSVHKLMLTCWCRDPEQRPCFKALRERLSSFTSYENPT

SMILES	inhibition at 0.5 µM (Src) [%]	inhibition at 0.5 µM (Fyn A) [%]	inhibition at 0.5 µM (CSK) [%]	inhibition at 0.5 µM (Lyn B) [%]	IC50 (U-251) [µM]	IC50 (HCT 116 p53+/+) [µM]	IC50 (K562) [µM]	IC50 (PANC-1) [µM]	IC50 (MCF-7) [µM]	inhibition at 0.5 µM (Lck) [%]	inhibition at 0.5 µM (ABL) [%]	IC50 (NHDF) [µM]	inhibition at 0.5 µM (BTK) [%]	IC50 (HCT 116 p53−/−) [µM]	IC50 (A549) [µM]	inhibition at 0.5 µM (BRK) [%]	Inhibition of tyrosine kinase activity [%] Src (Src; 0.5 μM) [%]	Inhibition of tyrosine kinase activity [%] Fyn A (Fyn A; 0.5 μM) [%]	Inhibition of tyrosine kinase activity [%] Lck (Lck; 0.5 μM) [%]
COc1ccccc1/C=C/c1nc(Sc2ccccc2C(F)(F)F)c2ccccc2n1 [IS6, 2-[(E)-2–(2-methoxyphenyl)ethenyl]-4-[2-(trifluoromethyl)phenylthio]quinazoline]	43.8 ± 9.07	26.1 ± 8.39	0	1.39 ± 0.41	> 25	> 25	> 25	> 25	> 25	0	1.18 ± 0.17	–	–	–	–	–	–	–	–
COc1cccc(Sc2nc(/C=C/c3ccccc3OC)nc3ccccc23)c1 [IS7, 2-[(E)-2–(2-methoxyphenyl)ethenyl]-4–(3-methoxyphenylthio)quinazoline]	8.17 ± 1.71	25.7 ± 2.29	39.3 ± 4.74	0	> 15	> 15	> 10	> 15	–	0	45.9 ± 2.63	> 20	53.5 ± 1.33	> 15	> 15	0	–	–	–
COc1ccccc1/C=C/c1nc(Sc2cccc(Cl)c2)c2ccccc2n1 [IS2, 2-[(E)-2–(2-methoxyphenyl)ethenyl]-4–(3-chlorophenylthio)quinazoline]	58	52	62.1 ± 4.45	38.4 ± 8.58	> 25	23.8 ± 5.32	24.8 ± 2.45	25.1 ± 1.44	19.7 ± 1.13	~74	25.2 ± 3.69	–	–	–	–	–	58.56 ± 4.80	52.32 ± 7.04	73.92 ± 9.72
Cc1nc(Nc2ncc(C(=O)Nc3c(C)cccc3Cl)s2)cc(N2CCN(CCO)CC2)n1 [Dasatinib, dasatinib, reference compound]	–	92.3 ± 2.55	94.2 ± 1.28	97.5 ± 1.49	–	–	–	–	–	–	–	–	–	–	–	–	–	–	–
COc1ccccc1/C=C/c1nc(Sc2ccccc2F)c2ccccc2n1 [IS5, 2-[(E)-2–(2-methoxyphenyl)ethenyl]-4–(2-fluorophenylthio)quinazoline]	28.2 ± 5.41	3.77 ± 1.21	23.1 ± 5.24	7.67 ± 3.28	> 25	> 25	> 25	> 25	> 25	37 ± 7.87	18.5 ± 1.59	–	–	–	–	–	–	–	–
COc1ccccc1/C=C/c1nc(Sc2ccccc2Cl)c2ccc(Cl)cc2n1 [IS12, 2-[(E)-2–(2-methoxyphenyl)ethenyl]-7-chloro-4–(2-chlorophenylthio)quinazoline]	0	0	0	0	> 25	> 25	> 25	–	> 25	0	0	–	15.4 ± 4.19	> 25	> 25	0	–	–	–
COc1ccccc1/C=C/c1nc(Sc2ccccn2)c2ccc(Cl)cc2n1 [IS14, 2-[(E)-2–(2-methoxyphenyl)ethenyl]-7-chloro-4-(pyrid-2-ylthio)quinazoline]	40.5 ± 9.17	16 ± 7.94	0	0	> 25	> 25	21.6 ± 2.1	> 25	> 25	14.8 ± 6.02	7.64 ± 0.7	–	–	–	–	–	–	–	–
COc1ccc(/C=C/c2nc(NCCCN(C)C)c3ccccc3n2)cc1 [CP-31398, N'-[2-[2–(4-methoxyphenyl)ethenyl]-4-quinazolinyl]-N,N-dimethyl-1,3-propanediamine dihydrochloride, reference compound]	–	30.6 ± 7.83	–	–	18.8 ± 1.65	18.6 ± 0.92	3.09 ± 0.36	> 25	27 ± 2.1	–	–	12.3 ± 0.54	36.8 ± 3.66	26.3 ± 1.41	> 25	–	–	–	–
COc1ccc(/C=C/c2nc(Sc3ccccc3Cl)c3ccccc3n2)cc1 [IS18, 2-[(E)-2–(4-methoxyphenyl)ethenyl]-4–(2-chlorophenylthio)quinazoline]	26.1 ± 6.03	17.3 ± 4.47	0	13.8 ± 1	10.3 ± 0.818	11.1 ± 1.37	> 25	12 ± 1.2	10.6 ± 1.38	66.5 ± 7.49	11.7 ± 4.03	–	–	–	–	–	–	–	–
COc1cccc(Sc2nc(/C=C/c3ccccc3OC)nc3cc(Cl)ccc23)c1 [IS13, 2-[(E)-2–(2-methoxyphenyl)ethenyl]-7-chloro-4–(3-methoxyphenylthio)quinazoline]	0	0	0	0	> 25	> 25	> 25	–	> 25	0	0	–	0	> 25	> 25	0	–	–	–
COc1ccccc1/C=C/c1nc(Sc2cc(Cl)ccc2Cl)c2ccccc2n1 [IS3, 2-[(E)-2–(2-methoxyphenyl)ethenyl]-4–(2,5-dichlorophenylthio)quinazoline]	0	60 ± 2.85	35 ± 1.11	26.2 ± 1.55	–	> 25	> 25	–	> 25	13.4 ± 5.58	4.02 ± 3.58	–	31.6 ± 2.38	> 25	–	0	–	–	–
